Source: PubChem BioAssay (NCI)
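Step 1: Grow cells in 96-well plates. Step 2: Expose to compound for 48 hours at 5 concentrations. Step 3: Interpolate endpoints linearly; if unreached, use highest concentration. GI50 is the concentration that inhibits growth by half. At the TGI there is no net growth.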

Key:
Assay in all cases: growth of human tumour cells (NCI), 48 h
UO-31 renal = system: UO-31 renal
SR leukemia = system: SR leukemia
IGROV1 ovarian = system: IGROV1 ovarian
RXF 393 renal = system: RXF 393 renal
SNB-19 CNS = system: SNB-19 CNS
A549 NSCLC = system: A549 NSCLC
CAKI-1 renal = system: CAKI-1 renal
KM12 colon = system: KM12 colon
TK-10 renal = system: TK-10 renal
A498 renal = system: A498 renal

| SMILES | TGI (UO-31 renal) [µM] | TGI (SR leukemia) [µM] | TGI (IGROV1 ovarian) [µM] | TGI (RXF 393 renal) [µM] | TGI (SNB-19 CNS) [µM] | TGI (A549 NSCLC) [µM] | TGI (CAKI-1 renal) [µM] | TGI (KM12 colon) [µM] | TGI (TK-10 renal) [µM] | TGI (A498 renal) [µM] | GI50 (UO-31 renal) [µM] | GI50 (SR leukemia) [µM] | GI50 (IGROV1 ovarian) [µM] | GI50 (RXF 393 renal) [µM] | GI50 (SNB-19 CNS) [µM] | GI50 (A498 renal) [µM] | GI50 (A549 NSCLC) [µM] | GI50 (CAKI-1 renal) [µM] | GI50 (KM12 colon) [µM] | GI50 (TK-10 renal) [µM] |
| --- | --- | --- | --- | --- | --- | --- | --- | --- | --- | --- | --- | --- | --- | --- | --- | --- | --- | --- | --- | --- |
| N=c1c2c(C(N)=O)cn(C3OC(CO)C(O)C3O)c2ncn1O (stereo not given) | > 20.6 | 0.234 | > 100 | 3.71 | > 100 | 2.11 | 0.399 | 0.753 | 0.426 | – | – | – | – | – | – | – | – | – | – | – |
| Cc1cccc2nc3c(C(=O)NCCN(C)C)cccc3cc12 | 5.44 | – | 7.11 | 4.13 | 5.2 | 3.5 | 8.49 | 9.47 | – | 3.48 | – | – | – | – | – | – | – | – | – | – |
| CCSCCC(N)C(=O)O (stereo not given) | > 100 | > 100 | > 100 | > 100 | > 100 | > 100 | – | > 100 | > 100 | > 100 | – | – | – | – | – | – | – | – | – | – |
| Cc1nc(N)nc(N)c1-c1ccc(Cl)c(Cl)c1 | > 89.3 | > 100 | > 100 | > 79.9 | > 100 | > 100 | > 100 | > 100 | > 51.9 | > 80.6 | – | – | – | – | – | – | – | – | – | – |
| COC(=O)C1=CC2CCCC1(O)C(C(C)=O)C2 (stereo not given) | 38.6 | > 81.5 | 32.9 | > 100 | > 100 | > 100 | > 100 | > 100 | > 100 | > 100 | – | – | – | – | – | – | – | – | – | – |
| CCOC(=O)C1(C(=O)OCC)Nc2cccnc2N(C)N1 | 31.8 | > 100 | 42.1 | 33.3 | > 100 | > 100 | 36.1 | > 100 | 40.1 | 52.4 | – | – | – | – | – | – | – | – | – | – |
| O=S(=O)(O)c1ccc2cccc(N=Nc3c(O)ccc4ccccc34)c2c1 | > 100 | > 100 | > 100 | > 100 | > 100 | > 100 | > 100 | > 100 | > 100 | > 100 | – | – | – | – | – | – | – | – | – | – |
| COc1ccc(/C(=C2/O[C@@H]([C@H]3COC(C)(C)O3)[C@H]3OC(C)(C)O[C@@H]23)c2cc(OC)c(OC)c(OC)c2)cc1O | 70.4 | > 100 | > 100 | 5.07 | > 100 | > 100 | 42.2 | 17.8 | 86.3 | 97.4 | 21.8 | 6.1 | 45.1 | 2.35 | 5.33 | 32.1 | 22.7 | 14.8 | 4.1 | 36.6 |
| CC1CNc2ccccc2N=C1NN (stereo not given) | > 100 | > 100 | > 100 | > 100 | > 100 | > 100 | > 100 | > 100 | > 100 | > 100 | – | – | – | – | – | – | – | – | – | – |
| CC1SC(c2ccccc2)N(CCc2cccs2)C1=O (stereo not given) | – | 16.4 | 74.4 | 20.4 | 19.9 | 15.1 | 16.2 | 13.3 | 26 | 14.2 | – | 3.06 | 4.72 | 6.76 | 5.06 | 2.63 | 4.16 | 3.15 | 3.44 | 4.05 |
| COc1ccc(/C=C2\C(=O)N(C3OC(COC(C)=O)C(OC(C)=O)C(OC(C)=O)C3OC(C)=O)c3ccccc3N=C2N)cc1 (stereo not given) | > 100 | 53.6 | > 100 | 62.2 | > 100 | > 100 | > 100 | > 100 | 99.2 | > 100 | – | – | – | – | – | – | – | – | – | – |
| CCOC(=O)c1nc2ccc(Cl)cc2c2c1Cc1ccccc1-2 | > 100 | > 100 | > 100 | > 100 | > 100 | > 100 | > 100 | > 100 | > 100 | – | – | – | – | – | – | – | – | – | – | – |
| O=C(N/N=C(/c1ccccc1)C(F)(F)F)c1ccncc1 | > 100 | > 100 | > 100 | > 100 | > 100 | – | > 100 | > 100 | > 100 | > 100 | – | – | – | – | – | – | – | – | – | – |
| CN1CC[C@@]2(c3cccc(O)c3)CC(=O)/C(=C/c3ccccc3)[C@H]1C2 | 25.5 | 7.5 | 36.2 | 20.5 | 19.5 | 36.9 | 15.4 | > 30.4 | 29.2 | 30.4 | – | – | – | – | – | – | – | – | – | – |
| CCN(CC)CC(C)Nc1ccc([N+](=O)[O-])c2sc3ccccc3c(=O)c12 (stereo not given) | 3.29 | – | 4.18 | 5.71 | 32.7 | 5.04 | 4.09 | 13.5 | 54.2 | 10.5 | 1 | – | 1.08 | 1.65 | 2.07 | 1.49 | 0.938 | 0.657 | 2.14 | 1.91 |
| COc1ccc2nc(N/N=C/C(C)=N/Nc3cc(C)c4cc(OC)ccc4n3)cc(C)c2c1 | > 100 | 12.8 | 47.1 | > 83.1 | 55.8 | 45.7 | 76.1 | 44.1 | 69.4 | > 80.9 | – | – | – | – | – | – | – | – | – | – |
